Measurements published in patent US4902720A (priority 1988, dated 1990).
Read-outs that look alike come from different tables or passages of the source.

Tested on: HSV-1
Experiment: microbe, parasite or virus in culture
Conditions: read-out: % Reduction

Compound `CC[N+](CC)(CC)CC.[Cl-]` [TEAC, tetraethylammonium chloride] has an inhibition at 20000 µg/mL (Human alphaherpesvirus 1, 4 h) of 25%, an inhibition at 20000 µg/mL (Human alphaherpesvirus 1, 6 h) of 57% and an inhibition at 20000 µg/mL (Human alphaherpesvirus 1, 8 h) of 69%. It also gave an inhibition at 20000 µg/mL (Human alphaherpesvirus 1, 10 h) of 88%.
